What all share (assay type): biochemical
The target in one test is JAK3 (Homo sapiens (Human), UniProt P52333). Kind of test: JAK Caliper Enzyme Assay at 1 mM ATP, JAK3. In a few lines: (§1)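 Recombinant human kinase domains phosphorylate a fluorescent synthetic peptide at 1 mM ATP, room temperature, with enzyme and time tuned for 20-30% conversion; EDTA-stopped. Product/substrate separated by microfluidic mobility shift; percent effect versus DMSO and positive controls fitted to IC50 (nM).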

In the next test the target is JAK1 (Homo sapiens (Human), UniProt P23458). Kind of test: JAK Caliper Enzyme Assay at 1 mM ATP, JAK1. In a few lines:
as §1

A further test has as its target TYK2 (Homo sapiens (Human), UniProt P29597). Kind of test: JAK Caliper Enzyme Assay at 1 mM ATP, TYK2. Put shortly:
(§2)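 Mobility-shift microfluidic read-out: substrate and phosphopeptide peaks separated, % conversion = product/(product+substrate). Reaction used recombinant human kinase domain, synthetic peptide, 1 mM ATP, RT incubation to 20–30% turnover, quenched with EDTA. Percent effect versus DMSO and positive controls, plotted against concentration.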

For a further test, the target named is JAK2 (Homo sapiens (Human), UniProt O60674). Put plainly: JAK Caliper Enzyme Assay at 1 mM ATP, JAK2. Put shortly: as §2

The structures appear in SMILES notation. Some results are limits rather than exact numbers.

As usually defined, the IC50 is the point on the concentration scale where inhibition reaches its midpoint.

JAK3, sequence (P52333 822-1111): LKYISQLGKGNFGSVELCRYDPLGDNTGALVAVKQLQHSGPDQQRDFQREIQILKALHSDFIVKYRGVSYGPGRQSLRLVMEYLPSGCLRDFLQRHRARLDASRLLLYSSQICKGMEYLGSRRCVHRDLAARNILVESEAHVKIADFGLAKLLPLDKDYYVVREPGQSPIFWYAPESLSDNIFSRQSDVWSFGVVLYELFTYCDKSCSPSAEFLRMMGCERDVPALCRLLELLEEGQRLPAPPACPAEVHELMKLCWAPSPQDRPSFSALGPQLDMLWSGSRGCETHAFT
TYK2, sequence (P29597 897-1176): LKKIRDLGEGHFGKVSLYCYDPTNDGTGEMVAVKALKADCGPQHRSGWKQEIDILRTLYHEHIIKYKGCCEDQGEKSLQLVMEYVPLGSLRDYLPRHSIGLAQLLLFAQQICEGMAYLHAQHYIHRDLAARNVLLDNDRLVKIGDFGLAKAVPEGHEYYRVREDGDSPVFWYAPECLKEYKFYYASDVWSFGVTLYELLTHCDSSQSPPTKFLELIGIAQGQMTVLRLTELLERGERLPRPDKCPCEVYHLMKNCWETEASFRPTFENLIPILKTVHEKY
JAK1, sequence (P23458 875-1153): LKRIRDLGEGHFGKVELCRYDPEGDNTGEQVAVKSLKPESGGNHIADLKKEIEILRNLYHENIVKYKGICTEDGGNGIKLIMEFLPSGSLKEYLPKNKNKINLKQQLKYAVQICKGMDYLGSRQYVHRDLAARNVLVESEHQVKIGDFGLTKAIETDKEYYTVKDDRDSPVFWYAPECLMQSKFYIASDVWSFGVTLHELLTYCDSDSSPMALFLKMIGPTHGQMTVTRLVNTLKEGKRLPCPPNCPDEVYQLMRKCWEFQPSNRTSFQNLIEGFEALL
JAK2, sequence (O60674 849-1124): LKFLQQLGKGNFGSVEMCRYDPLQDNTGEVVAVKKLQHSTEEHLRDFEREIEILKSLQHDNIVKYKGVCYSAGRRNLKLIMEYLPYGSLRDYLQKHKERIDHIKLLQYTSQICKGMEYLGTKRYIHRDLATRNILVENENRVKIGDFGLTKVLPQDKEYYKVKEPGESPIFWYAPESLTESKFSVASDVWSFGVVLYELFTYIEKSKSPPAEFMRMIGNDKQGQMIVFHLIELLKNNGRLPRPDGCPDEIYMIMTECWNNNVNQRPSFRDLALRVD

`CS(=O)(=O)N1CC(CC#N)(n2ccc(-c3nc(-c4cnc5c(c4)NCCN5)cc4ncccc34)n2)C1` [Example 170, [1-(methylsulfonyl)-3-{3-[7-(1,2,3,4-tetrahydropyrido[2,3-b]pyrazin-7-yl)-1,6-naphthyridin-5-yl]-1H-pyrazol-1-yl}azetidin-3-yl]acetonitrile]: the IC50 is above 10000 nM at JAK3, 1430 nM at JAK1, 56 nM at TYK2 and 399 nM at JAK2.

On to `N#CCC1(n2ccc(-c3nc(-c4ccncc4)cc4ncccc34)n2)CN(CC(F)(F)F)C1` [Example 172, [3-{3-[7-(pyridin-4-yl)-1,6-naphthyridin-5-yl]-1H-pyrazol-1-yl}-1-(2,2,2-trifluoroethyl)azetidin-3-yl]acetonitrile], for which the IC50 on JAK3 was above 10000 nM; on JAK1, 608 nM; on TYK2 it was 27 nM; at JAK2, 388 nM.

In the case of `Cc1cncc(-c2cc3ncccc3c(-c3ccn(C4(CC#N)CN(CC(F)(F)F)C4)n3)n2)c1` [Example 173, [3-{3-[7-(5-methylpyridin-3-yl)-1,6-naphthyridin-5-yl]-1H-pyrazol-1-yl}-1-(2,2,2-trifluoroethyl)azetidin-3-yl]acetonitrile], the IC50 was above 10000 nM on JAK3, above 10000 nM at JAK1, 1880 nM at TYK2 and 7880 nM on JAK2.

As to `Cc1cc(-c2cc3ncccc3c(-c3ccn(C4(CC#N)CN(S(C)(=O)=O)C4)n3)n2)ccn1` [Example 174, [3-{3-[7-(2-methylpyridin-4-yl)-1,6-naphthyridin-5-yl]-1H-pyrazol-1-yl}-1-(methylsulfonyl)azetidin-3-yl]acetonitrile], the IC50 is above 10000 nM at JAK3, 785 nM on JAK1, 49 nM on TYK2 and 332 nM at JAK2.

As to `Cc1ccc(-c2cc3ncccc3c(-c3ccn(C4(CC#N)CN(S(C)(=O)=O)C4)n3)n2)cn1` [Example 175, [3-{3-[7-(6-methylpyridin-3-yl)-1,6-naphthyridin-5-yl]-1H-pyrazol-1-yl}-1-(methylsulfonyl)azetidin-3-yl]acetonitrile], the IC50 on JAK3 is above 10000 nM; on JAK1, 5740 nM; at TYK2, 135 nM; on JAK2, 1180 nM.

As to `Cc1cc(-c2cc3ncccc3c(-c3ccn(C4(CC#N)CN(CC(F)(F)F)C4)n3)n2)ccn1` [Example 176, [3-{3-[7-(2-methylpyridin-4-yl)-1,6-naphthyridin-5-yl]-1H-pyrazol-1-yl}-1-(2,2,2-trifluoroethyl)azetidin-3-yl]acetonitrile], the IC50 was above 10000 nM on JAK3, 966 nM on JAK1, 71 nM at TYK2 and 634 nM on JAK2.

For the molecule `Cc1ccc(-c2cc3ncccc3c(-c3ccn(C4(CC#N)CN(CC(F)(F)F)C4)n3)n2)cn1` [Example 177, [3-{3-[7-(6-methylpyridin-3-yl)-1,6-naphthyridin-5-yl]-1H-pyrazol-1-yl}-1-(2,2,2-trifluoroethyl)azetidin-3-yl]acetonitrile], the half-inhibitory concentration (IC50) is above 10000 nM on JAK3, 2610 nM on JAK1, 58 nM at TYK2 and 794 nM at JAK2.

With `N#CCC1(n2ccc(-c3nc(-c4cncc(F)c4)cc4ncccc34)n2)CN(CC(F)(F)F)C1` [Example 178, [3-{3-[7-(5-fluoropyridin-3-yl)-1,6-naphthyridin-5-yl]-1H-pyrazol-1-yl}-1-(2,2,2-trifluoroethyl)azetidin-3-yl]acetonitrile], the IC50 at JAK3 is above 10000 nM; at JAK1, above 10000 nM; at TYK2, 1370 nM; at JAK2 it was 6780 nM.

For `N#CCC1(n2ccc(-c3nc(-c4ccncc4F)cc4ncccc34)n2)CN(CC(F)(F)F)C1` [Example 179, [3-{3-[7-(3-fluoropyridin-4-yl)-1,6-naphthyridin-5-yl]-1H-pyrazol-1-yl}-1-(2,2,2-trifluoroethyl)azetidin-3-yl]acetonitrile], the IC50 at JAK3 is above 10000 nM; at JAK1, above 10000 nM; at TYK2, 285 nM; on JAK2 it was 9670 nM.

As for `N#CC[C@]1(n2ccc(-c3nc(-c4cccc(O)n4)cc4ncccc34)n2)C[C@@H](C#N)C1` [Example 181, cis-3-(cyanomethyl)-3-{3-[7-(6-hydroxypyridin-2-yl)-1,6-naphthyridin-5-yl]-1H-pyrazol-1-yl}cyclobutanecarbonitrile], the IC50 on JAK3 was above 10000 nM; on JAK1, 853 nM; at TYK2, 40 nM; on JAK2, 123 nM.

On to `N#CC[C@]1(n2ccc(-c3nc(-c4cccc(O)n4)cc4ncccc34)n2)C[C@H](C#N)C1` [Example 182, trans-3-(cyanomethyl)-3-{3-[7-(6-hydroxypyridin-2-yl)-1,6-naphthyridin-5-yl]-1H-pyrazol-1-yl}cyclobutanecarbonitrile], for which the IC50 on JAK3 is above 10000 nM; on JAK1, 2020 nM; on TYK2 it was 53 nM; at JAK2 it was 224 nM.

Regarding `N#CCC1(n2ccc(-c3nc(-c4ccc(O)nc4)cc4ncccc34)n2)CN(CC(F)(F)F)C1` [Example 183, [3-{3-[7-(6-hydroxypyridin-3-yl)-1,6-naphthyridin-5-yl]-1H-pyrazol-1-yl}-1-(2,2,2-trifluoroethyl)azetidin-3-yl]acetonitrile], the IC50 at JAK3 is above 10000 nM; on JAK1, 384 nM; at TYK2 it was 21 nM; on JAK2 it was 397 nM.

For the molecule `CCN1CC(CC#N)(n2ccc(-c3nc(-c4ccc(O)nc4)cc4ncccc34)n2)C1` [Example 184], the concentration for half-maximal inhibition (IC50) at JAK3 was above 10000 nM; on JAK1 it was 4030 nM; on TYK2 it was 221 nM; on JAK2, 4030 nM.

As to `N#CCC1(n2ccc(-c3nc(-c4ccc(O)nc4)cc4ncccc34)n2)CN(C2CC(F)(F)C2)C1` [Example 185, [1-(3,3-difluorocyclobutyl)-3-{3-[7-(6-hydroxypyridin-3-yl)-1,6-naphthyridin-5-yl]-1H-pyrazol-1-yl}azetidin-3-yl]acetonitrile], the IC50 at JAK3 is above 10000 nM; at JAK1 it was 2030 nM; at TYK2, 88 nM; on JAK2, 2070 nM.

Regarding `COc1ncccc1-c1cc2ncccc2c(-c2ccn(C3(CC#N)CN(S(C)(=O)=O)C3)n2)n1` [Example 187, [3-{3-[7-(2-methoxypyridin-3-yl)-1,6-naphthyridin-5-yl]-1H-pyrazol-1-yl}-1-(methylsulfonyl)azetidin-3-yl]acetonitrile], the IC50 on JAK3 was above 10000 nM; at JAK1 it was above 10000 nM; on TYK2, 781 nM; on JAK2, above 10000 nM.

For `COc1ccc(-c2cc3ncccc3c(-c3ccn(C4(CC#N)CN(CC(F)(F)F)C4)n3)n2)cn1` [Example 188, [3-{3-[7-(6-methoxypyridin-3-yl)-1,6-naphthyridin-5-yl]-1H-pyrazol-1-yl}-1-(2,2,2-trifluoroethyl)azetidin-3-yl]acetonitrile], the half-maximal inhibitory concentration (IC50) was above 10000 nM on JAK3, 2720 nM on JAK1, 80 nM on TYK2 and 902 nM on JAK2.

Take `COc1cc(-c2cc3ncccc3c(-c3ccn(C4(CC#N)CN(S(C)(=O)=O)C4)n3)n2)ccn1` [Example 189]: the IC50 on JAK3 is above 10000 nM; on JAK1, 8340 nM; on TYK2, 84 nM; on JAK2, 725 nM.

For the origin of these results see patent US11254668B2, “Pyrazolo[1,5-A]pyrazin-4-yl and related derivatives” (Pfizer Inc., priority 2017, dated 2022).
